Where a SMILES comes first, the peptide text is derived from it. [ ]: non-standard residue; d: D form. 2Nal = N[C@@H](Cc1ccc2ccccc2c1)C(=O)O; Pen = CC(C)(S)[C@H](N)C(=O)O; αMeK = C[C@](N)(CCCCN)C(=O)O
Legend:
[1] = Half life in simulated gastric fluid at 20 uM by LC-MS/MS analysis; assay type: ADME
[2] = Half life in simulated intestinal fluid at 20 uM by LC-MS/MS analysis; assay type: ADME
[3] = Inhibition of interleukin-23 binding to rat interleukin-23 receptor incubated for 2 hrs by competitive binding ELISA
Interleukin-23 receptor [4] = biological target: T1, Interleukin-23 receptor (Homo sapiens, UniProt Q5VWK5); test: Inhibition of interleukin-23 receptor in human DB cells assessed as reduction in IL-23-stimulated STAT3 phosphorylation incubated for 30 mins by HTRF assay; assay type: cell-based
T1 sequence (Q5VWK5 whole entry): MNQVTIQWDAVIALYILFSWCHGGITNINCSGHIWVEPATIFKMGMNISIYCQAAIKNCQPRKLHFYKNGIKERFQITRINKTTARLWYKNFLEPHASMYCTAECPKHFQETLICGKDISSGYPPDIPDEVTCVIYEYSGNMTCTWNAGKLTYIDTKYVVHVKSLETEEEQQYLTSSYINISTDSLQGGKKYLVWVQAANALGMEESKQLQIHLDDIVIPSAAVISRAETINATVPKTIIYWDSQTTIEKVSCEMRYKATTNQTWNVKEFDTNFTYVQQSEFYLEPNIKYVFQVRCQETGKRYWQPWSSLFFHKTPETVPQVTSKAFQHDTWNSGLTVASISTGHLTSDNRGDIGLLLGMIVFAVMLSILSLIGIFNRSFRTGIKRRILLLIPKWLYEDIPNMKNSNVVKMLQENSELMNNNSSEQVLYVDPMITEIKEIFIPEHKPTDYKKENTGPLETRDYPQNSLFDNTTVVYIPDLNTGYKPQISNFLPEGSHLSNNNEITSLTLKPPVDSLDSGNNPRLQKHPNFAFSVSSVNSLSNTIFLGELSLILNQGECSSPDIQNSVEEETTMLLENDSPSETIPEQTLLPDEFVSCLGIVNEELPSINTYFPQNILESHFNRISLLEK

Interleukin-23 receptor [5] = biological target: T1, Interleukin-23 receptor; test: Inhibition of interleukin-23 binding to human interleukin-23 receptor incubated for 2 hrs by competitive binding ELISA

| half-life at 20 µM [1] [h] | half-life at 20 µM [2] [h] | IC50 [3] [µM] | IC50 (Interleukin-23 receptor [4]) [µM] | IC50 (Interleukin-23 receptor [5]) [µM] | SMILES |
| --- | --- | --- | --- | --- | --- |
| > 6 | > 6 |  |  |  | CC(=O)NCCCC[C@H](NC(=O)C(C)(C)NC(=O)[C@H](Cc1ccc2ccccc2c1)NC(=O)[C@H](Cc1ccc(OCCN)cc1)NC(=O)[C@@H](NC(=O)[C@H](CCC(N)=O)NC(=O)[C@H](Cc1c[nH]c2ccccc12)NC(=O)[C@@H](NC(=O)[C@H](CC(N)=O)NC(=O)[C@@H](NC(=O)[C@@H](Cc1ccccc1)NC(C)=O)C(C)(C)S)[C@@H](C)O)C(C)(C)S)C(=O)N[C@@H](CC(N)=O)C(=O)N[C@@H](CC(N)=O)C(N)=O |
|  | < 1 | 0.1 to 1 | 0.025 to 0.1 | 0.1 to 1 | CC(=O)N[C@H]1CCSC[C@@H](C(=O)N[C@@H](Cc2ccc(O)cc2)C(=O)N[C@@H](Cc2c[nH]c3ccccc23)C(=O)N[C@@H](CCCNC(=N)N)C(=O)N[C@@H](CCC(=O)O)C(=O)N[C@@H](CC(N)=O)C(=O)NCC(=O)NCCOCC(=O)N[C@H](CCCCN)C(N)=O)NC(=O)[C@H](CCC(N)=O)NC(=O)[C@H](Cc2c[nH]c3ccccc23)NC(=O)[C@H]([C@@H](C)O)NC(=O)[C@H](CCC(N)=O)NC1=O |
| > 6 | > 6 |  |  |  | COc1ccc(C[C@H](NC(=O)[C@@H](NC(=O)[C@H](CCC(N)=O)NC(=O)[C@H](Cc2c[nH]c3ccccc23)NC(=O)[C@@H](NC(=O)[C@H](CC(N)=O)NC(=O)[C@@H](NC(C)=O)C(C)(C)S)[C@@H](C)O)C(C)(C)S)C(=O)N[C@@H](Cc2ccc3ccccc3c2)C(=O)N[C@@](C)(CC(C)C)C(=O)N[C@@H](CCCCNC(C)=O)C(=O)N[C@@H](CC(N)=O)C(=O)N[C@@H](CC(N)=O)C(N)=O)cc1 |
| > 6 | > 6 |  |  |  | CC(=O)NCCCC[C@H](NC(=O)C1(NC(=O)[C@H](Cc2ccc3ccccc3c2)NC(=O)[C@H](Cc2ccc(C(N)=O)cc2)NC(=O)[C@@H](NC(=O)[C@H](CCC(N)=O)NC(=O)[C@H](Cc2c[nH]c3ccccc23)NC(=O)[C@@H](NC(=O)[C@H](CC(N)=O)NC(=O)[C@@H](NC(C)=O)C(C)(C)S)[C@@H](C)O)C(C)(C)S)CCCC1)C(=O)N[C@@H](CC(N)=O)C(=O)N[C@@H](CC(N)=O)C(N)=O |
|  | 3 to 6 | 0.1 to 1 | 0.01 to 0.025 | 0.1 to 1 | CC(=O)N[C@H](C(=O)N[C@@H](CCC(N)=O)C(=O)N[C@H](C(=O)N[C@@H](Cc1c[nH]c2ccccc12)C(=O)N[C@@H](CCC(N)=O)C(=O)N[C@H](C(=O)N[C@@H](Cc1ccc2ccccc2c1)C(=O)N[C@@H](Cc1ccc2ccccc2c1)C(=O)N[C@@](C)(CCCCN)C(=O)N[C@@H](CCC(=O)O)C(=O)N[C@@H](CC(N)=O)C(=O)NCC(N)=O)C(C)(C)S)[C@@H](C)O)C(C)(C)S (Ac-[Pen]QTWQ[Pen][2Nal][2Nal][αMeK]ENG-NH2) |
|  | > 6 | 0.1 to 1 | 0.025 to 0.1 | 0.025 to 0.1 | COc1ccc(C[C@H](NC(=O)[C@@H](NC(=O)[C@H](CCC(N)=O)NC(=O)[C@H](Cc2c[nH]c3ccccc23)NC(=O)[C@@H](NC(=O)[C@H](CCC(N)=O)NC(=O)[C@@H](NC(C)=O)C(C)(C)S)[C@@H](C)O)C(C)(C)S)C(=O)N[C@@H](Cc2cccc3ccccc23)C(=O)N[C@@](C)(CCCCN)C(=O)N[C@@H](CCCCNC(C)=O)C(=O)N[C@@H](CC(N)=O)C(=O)NCC(N)=O)cc1 |
|  | < 1 | < 0.01 | < 0.01 | < 0.01 | CC(=O)NCCCC[C@H](NC(=O)[C@H](CCC(C)C)NC(=O)[C@H](Cc1ccc2ccccc2c1)NC(=O)[C@H](Cc1ccc(OCCN)cc1)NC(=O)[C@@H]1CSCC[C@H](NC(C)=O)C(=O)N[C@@H](CCC(N)=O)C(=O)N[C@@H]([C@@H](C)O)C(=O)N[C@@H](Cc2c[nH]c3ccccc23)C(=O)N[C@@H](CCC(N)=O)C(=O)N1)C(=O)N[C@@H](CC(N)=O)C(=O)NCCC(N)=O |
|  | 3 to 6 | 0.025 to 0.1 | 0.01 to 0.025 | 0.025 to 0.1 | CC(=O)NCCCC[C@H](NC(=O)[C@](C)(CCCN)NC(=O)[C@H](Cc1c[nH]c2ccccc12)NC(=O)[C@H](Cc1ccc(O)cc1)NC(=O)[C@@H]1CSCC[C@H](NC(C)=O)C(=O)N[C@@H](CCC(N)=O)C(=O)N[C@@H]([C@@H](C)O)C(=O)N[C@@H](Cc2c[nH]c3ccccc23)C(=O)N[C@@H](CCC(N)=O)C(=O)N1)C(=O)N[C@@H](CC(N)=O)C(=O)NCC(N)=O |

The next lines start with the compound.

| SMILES | half-life at 20 µM [1] [h] | half-life at 20 µM [2] [h] | IC50 [3] [µM] | IC50 (Interleukin-23 receptor [4]) [µM] | IC50 (Interleukin-23 receptor [5]) [µM] |
| --- | --- | --- | --- | --- | --- |
| CC(=O)NCCCC[C@H](NC(=O)[C@](C)(CCCCN)NC(=O)[C@H](Cc1ccc2ccccc2c1)NC(=O)[C@H](Cc1ccc2ccccc2c1)NC(=O)[C@@H]1CSCC[C@H](NC(C)=O)C(=O)N[C@@H](CCC(N)=O)C(=O)N[C@@H]([C@@H](C)O)C(=O)N[C@@H](Cc2c[nH]c3ccccc23)C(=O)N[C@@H](CCC(N)=O)C(=O)N1)C(=O)N[C@@H](CC(N)=O)C(=O)NCC(N)=O |  | 3 to 6 | 0.025 to 0.1 | 0.01 to 0.025 | 0.025 to 0.1 |
| CC(=O)NCCCC[C@H](NC(=O)[C@](C)(CC(C)C)NC(=O)[C@H](Cc1ccc2ccccc2c1)NC(=O)[C@H](Cc1ccc(C(N)=O)cc1)NC(=O)[C@@H](NC(=O)[C@H](CCC(N)=O)NC(=O)[C@H](Cc1c[nH]c2ccccc12)NC(=O)[C@@H](NC(=O)[C@H](CC(N)=O)NC(=O)[C@@H](NC(C)=O)C(C)(C)S)[C@@H](C)O)C(C)(C)S)C(=O)N[C@@H](CC(N)=O)C(=O)N[C@@H](CC(N)=O)C(N)=O | > 6 | > 6 |  |  |  |
| CC(=O)NCCCC[C@H](NC(=O)C(C)(C)NC(=O)[C@H](Cc1ccc2ccccc2c1)NC(=O)[C@H](Cc1ccc(OCCN)cc1)NC(=O)[C@@H](NC(=O)[C@H](CCC(N)=O)NC(=O)[C@H](Cc1c[nH]c2ccccc12)NC(=O)[C@@H](NC(=O)[C@H](CC(N)=O)NC(=O)[C@@H](NC(=O)[C@@H](Cc1ccccc1)NC(C)=O)C(C)(C)S)[C@@H](C)O)C(C)(C)S)C(=O)N[C@@H](CC(N)=O)C(=O)NCCC(N)=O | 3 to 6 | > 6 |  |  |  |
| COc1ccc(C[C@H](NC(=O)[C@@H]2CSCC[C@H](NC(C)=O)C(=O)N[C@@H](CCC(N)=O)C(=O)N[C@@H]([C@@H](C)O)C(=O)N[C@@H](Cc3c[nH]c4ccccc34)C(=O)N[C@@H](CCC(N)=O)C(=O)N2)C(=O)N[C@@H](Cc2ccc3ccccc3c2)C(=O)N[C@H](CC(N)=O)C(=O)N[C@@H](CCCCNC(C)=O)C(=O)N[C@@H](CC(N)=O)C(=O)NCC(N)=O)cc1 |  | > 6 | 0.1 to 1 | 0.025 to 0.1 | 0.025 to 0.1 |
| CC(=O)N[C@H](C(=O)N[C@@H](CCC(N)=O)C(=O)N[C@H](C(=O)N[C@@H](Cc1c[nH]c2ccccc12)C(=O)N[C@@H](CCC(N)=O)C(=O)N[C@H](C(=O)N[C@@H](Cc1ccc(O)cc1)C(=O)N[C@@H](Cc1ccc2ccccc2c1)C(=O)N[C@@](C)(CCCN)C(=O)N[C@@H](CCC(=O)O)C(=O)N[C@@H](CC(N)=O)C(=O)NCC(N)=O)C(C)(C)S)[C@@H](C)O)C(C)(C)S |  | 3 to 6 | 0.1 to 1 | 0.01 to 0.025 | 0.025 to 0.1 |
| COc1ccc(C[C@H](NC(=O)[C@@H]2CSCC[C@H](NC(C)=O)C(=O)N[C@@H](CCC(N)=O)C(=O)N[C@@H]([C@@H](C)O)C(=O)N[C@@H](Cc3c[nH]c4ccccc34)C(=O)N[C@@H](CCC(N)=O)C(=O)N2)C(=O)N[C@@H](Cc2ccc3ccccc3c2)C(=O)NC(C)(C)C(=O)N[C@@H](CCCCNC(C)=O)C(=O)N[C@@H](CC(N)=O)C(=O)NCC(N)=O)cc1 |  | > 6 | 0.025 to 0.1 | < 0.01 | 0.01 to 0.025 |
| CC(=O)N[C@H](C(=O)N[C@@H](CCC(N)=O)C(=O)N[C@H](C(=O)N[C@@H](Cc1c[nH]c2ccccc12)C(=O)N[C@@H](CCC(N)=O)C(=O)N[C@H](C(=O)N[C@@H](Cc1ccc(O)cc1)C(=O)N[C@@H](Cc1cccc2ccccc12)C(=O)N[C@@](C)(CCCN)C(=O)N[C@@H](CCC(=O)O)C(=O)N[C@@H](CC(N)=O)C(=O)NCC(N)=O)C(C)(C)S)[C@@H](C)O)C(C)(C)S |  | 3 to 6 | 0.1 to 1 | 0.025 to 0.1 | 0.1 to 1 |
| CC(=O)NCCCC[C@H](NC(=O)[C@](C)(CCCN)NC(=O)[C@H](Cc1ccc2ccccc2c1)NC(=O)[C@H](Cc1ccc2ccccc2c1)NC(=O)[C@@H]1CSCC[C@H](NC(C)=O)C(=O)N[C@@H](CCC(N)=O)C(=O)N[C@@H]([C@@H](C)O)C(=O)N[C@@H](Cc2c[nH]c3ccccc23)C(=O)N[C@@H](CCC(N)=O)C(=O)N1)C(=O)N[C@@H](CC(N)=O)C(=O)NCC(N)=O |  | 2 to 3 | 0.1 to 1 | < 0.01 | 0.025 to 0.1 |
| CC(=O)N[C@H](C(=O)N[C@@H](CCC(N)=O)C(=O)N[C@H](C(=O)N[C@@H](Cc1c[nH]c2ccccc12)C(=O)N[C@@H](CCC(N)=O)C(=O)N[C@H](C(=O)N[C@@H](Cc1ccc(O)cc1)C(=O)N[C@@H](Cc1ccc2ccccc2c1)C(=O)N[C@@](C)(CCCCN)C(=O)N[C@@H](CCC(=O)O)C(=O)N[C@@H](CC(N)=O)C(=O)NCC(N)=O)C(C)(C)S)[C@@H](C)O)C(C)(C)S |  | 3 to 6 | 0.1 to 1 | < 0.01 | 0.025 to 0.1 |

Reference: ChEMBL document CHEMBL4417631, “Oral peptide inhibitors of interleukin-23 receptor and their use to treat inflammatory bowel diseases” (2017)
